Columns and labels:
[1] = system: mTORC1 signalling (rpS6 phosphorylation); experiment: Western blot of rpS6 phosphorylation (mTORC1 signalling) in Tsc2−/− MEFs; assay type: cell-based, mouse; conditions: CBD at 5 μM, 6 h of treatment
Description: Cells were washed in Phosphate Buffered Saline (PBS) and then lysed directly in sample buffer (62.5 mM Tris HCL, 50 mM DTT, 2% SDS (w/v), 10% Glycerol (w/v), 0.1% Bromophenol blue (w/v) pH 7.6) and sonicated for 5×20 s cycles on full power (30 amplitude microns). Samples were boiled at 95° C. for 10 min. Lysates were resolved by SDS-PAGE and proteins were transferred to polyvinylidene difluoride membranes.
Membranes were blocked in 5% (w/v) dry milk powder dissolved in Tris-buffered saline containing 0.1% (v/v) Tween, then probed with primary antibody and horse radish peroxidase-conjugated secondary antibody. Proteins were visualized using Enhanced Chemiluminescent solution and Hyperfilm. Antibodies towards ribosomal protein S6 (rpS6), phospho-rpS6 (Ser235/236) were purchased from Cell Signaling Technology. Anti-HIF-1α was obtained from BD transduction laboratories. Statistical Analysis
Western blotting was carried out to determine whether CBD could impair mTORC1 signalling (using rpS6 phosphorylation as a readout of mTORC1 signalling).

[2] = treatment resistant paediatric epilepsy; cited from earlier work
[3] = system: Tsc2−/− Mouse Embryonic Fibroblast (MEF) cell lines; experiment: Wound healing assay in Tsc2−/− MEFs; assay type: cell-based; conditions: CBD at 10 and 20 μM; FIG. 1 (A)
Description: (§1) (ii) Tsc2−/− p53−/− and Tsc2+/+p53−/− mouse embryonic fibroblast (MEF) cell lines (now referred to as Tsc2−/− and Tsc2+/+, respectively).
Tsc2−/− and Tsc2+/+ cell lines were cultured and maintained in DMEM supplemented with 10% (v/v) FBS and 1% (v/v) penicillin-streptomycin in a humidified incubator (5% CO2 at 37° C.). The AML −/− cell lines were cultured and maintained in DMEM supplemented with 15% (v/v) FBS and 1% (v/v) penicillin-streptomycin in a humidified incubator (5% CO2 at 37° C.). For hypoxia, cells were put into a Binder CB150 hypoxic chamber set at 1% 02 for the indicated time points
The stock concentration of CBD was made to 20 mM in dimethyl sulfoxide (DMSO). […] The final concentration of the DMSO in the cell culture medium was at a maximum level of 0.05% (v/v).
Cells were seeded in 60 mm plates and left to reach 100% confluency. Cells were then synchronised in 1% (v/v) FBS DMEM for 24 h and “wounded” with a pipette tip. Dead cells were removed with PBS wash and then subsequently replaced with DMEM (10% (v/v) FBS). Cells were pre-treated for 30 min with either rapamycin, c-MET or STAT3 inhibitors (where indicated) before cytokine stimulation. Pictures were taken before treatment and 12-18 h after treatment using an inverted AMG EVOS microscope equipped with an Olympus camera.

Tsc2−/− MEFs = experiment: Tumour spheroid growth (soft agar) assay in Tsc2−/− MEFs; assay type: cell-based, mouse; conditions: 10 μM CBD
Description: as §1
The stock concentration of CBD was made to 20 mM in dimethyl sulfoxide (DMSO). CBD was added to culture media to final concentrations of either 5 μM or 10 μM, as indicated). The final concentration of the DMSO in the cell culture medium was at a maximum level of 0.05% (v/v).
Two-layered soft agar assays were carried out in 6-well plates. All cell lines were plated in complete DMEM media in 0.35% (v/v) agar at (3*10^5) over a 0.6% (v/v) agar layer. The agar was then overlaid with complete DMEM media and spheroids were grown for 14 days at 37° C. in 5% CO2. Media were changed twice a week and new drug was added to media. Pictures were taken using an inverted AMG EVOS microscope equipped with an Olympus camera. Volume of tumour spheroids was measured using ImageJ software.

Panc-1 cells = experiment: MTT cell viability assay in Panc-1; assay type: cell-based; conditions: Homo sapiens, 50 μM CBD, 72 h, FIG. 6A, read-out: growth inhibition
Description: PANC-1 is a human pancreatic carcinoma, epithelial-like cell line; PANC-1 cells are used as an in vitro model of non-endocrine pancreatic cancer for tumorigenicity studies.
Cell viability was analyzed by the MTT [3-(4,5-dimethylthiazol-2-yl)-2,5-diphenyl tetrazolium bromide] assay. Pancreatic cancer cells were seeded onto each well of a 96-well plate. After 72 h of treatment with CBD, MTT solution 5 mg/ml in PBS was added to each well. The plates were then incubated at 37° C. for an additional 4 h to allow MTT to form formazan crystals by reacting with metabolically active cells. The formazan crystals were solubilized in a 1N isopropanol/HCl 10% solution at 37° C., on a shaking table for 20 min. The absorbance values of the solution in each well were measured at 570 nm using a microplate reader. Cell viability was determined by the formula: cell viability (%)=(absorbance of the treated wells−absorbance of the blank control wells)/(absorbance of the negative control wells−absorbance of the blank control wells)×100%. All MTT experiments were performed in triplicate and repeated at least three times.
The growth inhibition induced by different concentrations (0.04-50 μM) of CBD on human Panc-1 at 72 h from the beginning of the treatment was evaluated with MTT assay.

In the case of `C=C(C)[C@@H]1CCC(C)=C[C@H]1c1c(O)cc(CCCCC)cc1O` [CBD, Cannabidiol], the rpS6 phosphorylation [1] is given as “inhibited rpS6 phosphorylation”, the seizure frequency [2] is given as “significant reductions in seizure frequency” and the “block of wound closure” value [3] is given as “as effective as rapamycin”. For the same compound, the “inhibition of tumour spheroid diameter” value (Tsc2−/− MEFs) was “Significance to inhibit tumour spheroid diameter was observed” and the inhibition at 50 µM (Panc-1 cells) was 41%.
